The results in this text go back to patent publication US9724506B2, “Nanopillar electrode devices and methods of recording action potentials” (The Board of Trustees of the Leland Stanford Junior …, priority 2013, dated 2017).

Several values for one entry are separate records, joined by “and”; a condition that tells them apart may be missing. Identical values can stand only once.

This assay has as its system HL-1 cells. Briefly: Nanopillar electrode intracellular recording of HL-1 action potentials after electroporation, before and after ion-channel drug. Conditions: for APD50 after drug: 10 min incubation, 4 different HL-1 cells in 3 cultures, same cell recorded before and after drug; for APD50 change (%): APD50 after drug versus before drug on the same HL-1 cell. In kind it is cell-based, mouse. Here is the method:
The HL-1 cardiomyocyte cell line was obtained from the laboratory of William C. Claycomb at Louisiana State University. Before plating, the nanopillar electrode device was cleaned with detergent and deionized water, followed by 5 minutes of oxygen plasma treatment. The culture chamber was coated with 5 Δg ml^−1 fibronectin in 0.02% gelatin solution overnight to facilitate cell attachment (Claycomb et al. (1998) Proc. Natl. Acad. Sci. USA 95:2979-2984). HL-1 cells were then plated inside the chamber at a density of ˜1×10^5 cm^−2 and were maintained in the Claycomb medium supplemented with 10% fetal bovine serum, 0.1 mM norepinephrine, 2 mM L-glutamine and 100 U ml^−1 penicillin and 100 Δg ml^−1 streptomycin. The cells were maintained in a standard incubator at 37° C. and 5% CO2. Medium was changed every 24 hours. […] Fluorescent imaging of calcein dye was performed with a 470 nm excitation filter and a 525 nm emission filter.
A 60-channel voltage amplifier system (Multichannel System, MEA1060) was used to record HL-1 cells cultured on the nanopillar electrode arrays (nine nanopillars per array) after the cells started beating. Recording was performed in the same culture medium at 37° C. with an Ag/AgCl electrode in the medium as the reference electrode. The amplification was typically 110× for intracellular recording or 1,100× for extracellular recording, and the sampling rate was 5-20 kHz. The signal was filtered with a band-pass of 1 Hz-5 kHz. For electroporation, 20 biphasic pulses of 2.5 Vamp were applied to a nanopillar electrode in a total time of 1 second. The recording system was blanked during the electroporation period. Electrophysiology recordings were resumed 20-40 seconds after electroporation to avoid amplifier saturation.
For control experiments, we electroporated the cells to record action potentials in the absence of drugs. After the cells had recovered for a few hours, nifedipine or tetraethyl-ammonium of different concentrations was added to the culture medium and the cultures incubated for 10 minutes. Subsequently, another electroporation was applied to record the action potentials of the drug-treated cells.

Where [1] appears, read: 10 mM tetraethylammonium, HL-1 cells, versus control recording without drug (FIG. 5).

With `COC(=O)C1=C(C)NC(C)=C(C(=O)OC)C1c1ccccc1[N+](=O)[O-]` [nifedipine], for the setting “100 nM nifedepine”, the APD50 after drug was 41.52 ms and 43.40 ms and 40.92 ms and 33.39 ms; the “APD50 change (%)” value was 93.8% and 93.6% and 94.0% and 92.9%.
Consider `CC[N+](CC)(CC)CC` [tetraethylammonium], for which, under “1 mM tetraethylammonium”, the APD50 after drug is 50.54 ms and 45.74 ms and 48.78 ms and 54.93 ms; the “APD50 change (%)” value was 109.9% and 110.5% and 111.1% and 109.8%. Besides, under setting [1], the APD50 entry is listed as “increasing APD50” and the action potential period entry is reported as “decreasing the period”. Where the note is “FIG. 5c, four different HL-1 cells on three different cultures per drug”, the “APD50 relative to the control” value is reported as “increase”.
